{"source": "patent US11807607B1", "about": "“Aminocarbazole compounds as antibacterial agents” (KING FAISAL UNIVERSITY, priority 2023, dated 2023)", "key": {"[1]": {"tested_on": "Mycobacterium tuberculosis H37Rv strain", "assay": "Anti-tubercular alamar blue microplate MIC assay", "format": "cell-based", "conditions": "168 h, M. tuberculosis H37Rv, 7 days at 37° C., read-out: anti-mycobacterial activity (MIC)"}, "[2]": {"target": "T1, DNA gyrase from E. coli (Escherichia coli, UniProt P0AES4+P0AES6)", "T1 construct": "purchased Inspiralis", "T1 sequence (P0AES4 whole entry, one chain of several)": "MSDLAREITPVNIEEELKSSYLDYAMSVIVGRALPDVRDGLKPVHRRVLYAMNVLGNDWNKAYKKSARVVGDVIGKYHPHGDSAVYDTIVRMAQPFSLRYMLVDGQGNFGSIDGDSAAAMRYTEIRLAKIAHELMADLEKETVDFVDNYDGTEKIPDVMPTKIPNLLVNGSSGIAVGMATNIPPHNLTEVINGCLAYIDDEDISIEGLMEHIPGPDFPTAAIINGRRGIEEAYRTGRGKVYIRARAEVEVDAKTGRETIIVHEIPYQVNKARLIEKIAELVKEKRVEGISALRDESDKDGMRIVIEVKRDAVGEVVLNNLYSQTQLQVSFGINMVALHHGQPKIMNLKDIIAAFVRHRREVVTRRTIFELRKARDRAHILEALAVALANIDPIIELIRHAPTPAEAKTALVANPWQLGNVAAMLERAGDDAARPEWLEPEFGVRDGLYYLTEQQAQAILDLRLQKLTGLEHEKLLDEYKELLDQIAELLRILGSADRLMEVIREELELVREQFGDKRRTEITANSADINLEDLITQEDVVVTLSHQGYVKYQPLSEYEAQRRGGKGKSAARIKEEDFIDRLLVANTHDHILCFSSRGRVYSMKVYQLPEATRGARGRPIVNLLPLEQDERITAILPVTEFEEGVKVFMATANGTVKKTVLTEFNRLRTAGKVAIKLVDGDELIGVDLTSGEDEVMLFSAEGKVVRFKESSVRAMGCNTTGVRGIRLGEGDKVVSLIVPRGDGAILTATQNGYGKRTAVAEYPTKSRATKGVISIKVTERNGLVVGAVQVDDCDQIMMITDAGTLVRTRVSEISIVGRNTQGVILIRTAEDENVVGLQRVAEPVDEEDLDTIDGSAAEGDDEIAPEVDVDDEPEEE", "assay": "Inspiralis E. coli DNA gyrase inhibition assay", "format": "biochemical", "procedure": "Inhibitory potencies were investigated utilizing the Inspiralis assay on streptavidin-coated 96-well microtiter plates. First, the plates were rehydrated with buffer (20 mM Tris-HCl with pH 7.6, 0.01% w/v BSA, 0.05% v/v Tween 20, 137 mM NaCl) and the biotinylated oligonucleotide was then immobilized. After washing off the unbound oligonucleotide, the enzyme test was performed. […] Reaction solutions were incubated at 37° C. for 30 min. After that, the TF buffer (50 mM NaOAc with pH 5.0, 50 mM NaCl and 50 mM MgCl2) was added to terminate the enzymatic reaction. After additional incubation for 30 min at rt, during which biotinoligonucleotide-plasmid triplex was formed, the unbound plasmid was washed off using TF buffer and SybrGOLD in T10 buffer (10 mM Tris HCl with pH 8.0 and 1 mM EDTA) was added. The fluorescence was measured with a microplate reader (BioTek Synergy H4, excitation: 485 nm, emission: 535 nm). Initial screening was done at 100 or 10 μM concentration of inhibitors. […] GraphPad Prism software was used to calculate the IC50 values. The result is given as the average value of three independent measurements."}, "[3]": {"tested_on": "Gram-positive and Gram-negative bacterial strains, drug sensitive and drug resistant", "assay": "In vitro antibacterial activity evaluation, whole strain panel"}, "[4]": {"tested_on": "Bacillus subtilis MTCC 441", "assay": "Antibacterial MIC, CLSI M07-A10 dilution susceptibility test", "format": "cell-based", "conditions": "MTCC441"}, "[5]": {"tested_on": "Enterococcus faecium ATCC 51559 (VRE resistant)", "assay": "Antibacterial MIC, CLSI M07-A10 dilution susceptibility test", "format": "cell-based"}, "[6]": {"tested_on": "Escherichia coli MTCC 443", "assay": "Antibacterial MIC, CLSI M07-A10 dilution susceptibility test", "format": "cell-based", "conditions": "MTCC443"}, "[7]": {"tested_on": "Klebsiella pneumonia MTCC 618", "assay": "Antibacterial MIC, CLSI M07-A10 dilution susceptibility test", "format": "cell-based", "conditions": "Klebsiella pneumoniae, MTCC618"}, "[8]": {"tested_on": "Staphylococcus epidermidis", "assay": "Antibacterial MIC, CLSI M07-A10 dilution susceptibility test", "format": "cell-based"}, "[9]": {"tested_on": "Staphylococcus aureus ATCC 29213", "assay": "Antibacterial MIC, CLSI M07-A10 dilution susceptibility test", "format": "cell-based", "conditions": "ATCC29213"}, "[10]": {"tested_on": "Pseudomonas aeruginosa MTCC 741", "assay": "Antibacterial MIC, CLSI M07-A10 dilution susceptibility test", "format": "cell-based", "conditions": "MTCC741"}, "[11]": {"tested_on": "Staphylococcus aureus ATCC BAA-1556 (MERSA resistant)", "assay": "Antibacterial MIC, CLSI M07-A10 dilution susceptibility test", "format": "cell-based", "conditions": "ATCCBAA1556"}, "[12]": {"tested_on": "Enterococcus faecium ATCC 35667", "assay": "Antibacterial MIC, CLSI M07-A10 dilution susceptibility test", "format": "cell-based", "conditions": "ATCC35667"}}, "note": "Where two headings read alike, the source gives them in different places."}
{"smiles": "CNc1cc(F)cc2c1[nH]c1ccc(-c3cccc(CC(=O)O)c3)cc12", "note": "[Compound 1, 2-(3-(6-fluoro-8-(methylamino)-9H-carbazol-3-yl)phenyl)acetic acid]", "values": [{"measurement": "MIC", "setting": "[1]", "value": 2, "unit": "µg/mL"}, {"measurement": "IC50", "setting": "[2]", "value": 80, "unit": "nM"}, {"measurement": "antibacterial activity (in words)", "setting": "[3]", "value": "promising antibacterial activity"}]}
{"smiles": "CNc1cc(F)cc2c1[nH]c1ccc(Nc3cccc(C(=O)O)c3)cc12", "note": "[Compound 6, 3-((6-fluoro-8-(methylamino)-9H-carbazol-3-yl)amino)benzoic acid]", "values": [{"measurement": "MIC", "setting": "[4]; Bacillus subtilis MTCC 441, read-out: MIC", "value": 0.75, "unit": "µg/mL"}, {"measurement": "MIC", "setting": "[5]; Enterococcus faecium ATCC 51559 (VRE resistant), read-out: MIC", "value": 2, "unit": "µg/mL"}, {"measurement": "MIC", "setting": "[6]; Escherichia coli MTCC 443, read-out: MIC", "value": 32, "unit": "µg/mL"}, {"measurement": "MIC", "setting": "[7]; Klebsiella pneumonia MTCC 618, read-out: MIC", "value": 1, "unit": "µg/mL"}, {"measurement": "MIC", "setting": "[8]; read-out: MIC", "value": 0.5, "unit": "µg/mL"}, {"measurement": "MIC", "setting": "[9]", "value": 0.75, "unit": "µg/mL"}, {"measurement": "MIC", "setting": "[10]; Pseudomonas aeruginosa MTCC 741, read-out: MIC", "value": 16, "unit": "µg/mL"}, {"measurement": "MIC", "setting": "[11]", "value": 1, "unit": "µg/mL"}, {"measurement": "MIC", "setting": "[12]; Enterococcus faecium ATCC 35667, read-out: MIC", "value": 1, "unit": "µg/mL"}]}
{"smiles": "CN[C@H](CC(C)C)C(=O)N[C@H]1C(=O)N[C@@H](CC(N)=O)C(=O)N[C@H]2C(=O)N[C@H]3C(=O)N[C@H](C(=O)N[C@H](C(=O)O)c4cc(O)cc(O)c4-c4cc3ccc4O)[C@H](O)c3ccc(c(Cl)c3)Oc3cc2cc(c3O[C@@H]2O[C@H](CO)[C@@H](O)[C@H](O)[C@H]2O[C@H]2C[C@](C)(N)[C@H](O)[C@H](C)O2)Oc2ccc(cc2Cl)[C@H]1O", "note": "[Vancomycin, reference compound]", "values": [{"measurement": "MIC", "setting": "[4]; Bacillus subtilis", "value": 0.5, "unit": "µg/mL"}, {"measurement": "MIC", "setting": "[5]; Enterococcus faecium", "value": "> 128", "unit": "µg/mL"}, {"measurement": "MIC", "setting": "[6]; Escherichia coli", "value": "> 128", "unit": "µg/mL"}, {"measurement": "MIC", "setting": "[7]", "value": "> 128", "unit": "µg/mL"}, {"measurement": "MIC", "setting": "[8]", "value": 1, "unit": "µg/mL"}, {"measurement": "MIC", "setting": "[10]; Pseudomonas aeruginosa", "value": "> 128", "unit": "µg/mL"}, {"measurement": "MIC", "setting": "[12]; Enterococcus faecium", "value": 0.5, "unit": "µg/mL"}]}
